Test results: PubChem BioAssay (NCI)
Values joined by “and” are separate entries in the source; they are usually repeats but may differ in a detail not shown here. Identical values can stand only once.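 Exposure lasted 48 hours, with cells grown in 96-well plates and compounds tested at five concentrations. GI50 = concentration required for 50% inhibition of growth. TGI marks complete inhibition of growth.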

Columns and labels:
Assay in all cases: NCI tumour cell line growth inhibition, 48 h
[1] = tested on: 786-0 renal
[2] = tested on: NCI-H460 lung
[3] = tested on: MOLT-4 leukemia
[4] = tested on: P388/ADR leukemia
[5] = tested on: SN12K1 renal
[6] = tested on: SK-MEL-28 melanoma
[7] = tested on: SR leukemia
[8] = tested on: DU-145 prostate
[9] = tested on: NCI-H23 lung
[10] = tested on: DMS 273 small cell lung
[11] = tested on: TK-10 renal
[12] = tested on: P388 leukemia
[13] = tested on: HT29 colon
[14] = tested on: CAKI-1 renal
[15] = tested on: DMS 114 small cell lung
[16] = tested on: UO-31 renal
[17] = tested on: SNB-19 CNS
[18] = tested on: MCF7 breast
[19] = tested on: OVCAR-5 ovarian
[20] = tested on: SF-539 CNS
[21] = tested on: ACHN renal
[22] = tested on: OVCAR-8 ovarian
[23] = tested on: BT-549 breast
[24] = tested on: HCC-2998 colon
[25] = tested on: A549 NSCLC
[26] = tested on: A498 renal
[27] = tested on: K-562 leukemia
[28] = tested on: NCI-H522 lung
[29] = tested on: SK-MEL-5 melanoma
[30] = tested on: HCT-116 colon
[31] = tested on: SNB-78 CNS
[32] = tested on: SNB-75 CNS
[33] = tested on: EKVX NSCLC
[34] = tested on: HOP-62 NSCLC
[35] = tested on: OVCAR-4 ovarian
[36] = tested on: NCI-H226 lung
[37] = tested on: SF-268 CNS
[38] = tested on: RPMI-8226 leukemia
[39] = tested on: HOP-92 NSCLC
[40] = tested on: UACC-62 melanoma
[41] = tested on: RXF 393 renal
[42] = tested on: LOX IMVI melanoma
[43] = tested on: HOP-18 NSCLC
[44] = tested on: U251 CNS
[45] = tested on: HL-60(TB) leukemia
[46] = tested on: SN12C renal
[47] = tested on: SK-MEL-2 melanoma
[48] = tested on: HCT-15 colon
[49] = tested on: OVCAR-3 ovarian
[50] = tested on: DLD-1 colon
[51] = tested on: RXF-631 renal
[52] = tested on: SF-295 CNS
[53] = tested on: SK-OV-3 ovarian
[54] = tested on: UACC-257 melanoma
[55] = tested on: IGROV1 ovarian
[56] = tested on: CCRF-CEM leukemia
[57] = tested on: LXFL 529 NSCLC
[58] = tested on: KM20L2 colon
[59] = tested on: COLO 205 colon
[60] = tested on: MALME-3M melanoma
[61] = tested on: M19-MEL melanoma
[62] = tested on: KM12 colon
[63] = tested on: M14 melanoma
[64] = tested on: SW-620 colon
[65] = tested on: XF 498 CNS

O=c1[nH]c(=O)n(C2CC(O)C(CO)O2)cc1F (stereo not drawn)
TGI [1]: > 100 µM and 1790 µM and > 2500 µM | GI50 [2]: > 65.3 µM | TGI [2]: > 100 µM and 526 µM | TGI [3]: > 0.1 mM and 1.93 mM and > 2.5 mM | TGI [4]: 74.9 µM | TGI [5]: 1.25 mM | TGI [6]: > 100 µM and 1730 µM and > 2500 µM | TGI [7]: > 100 µM and 750 µM | TGI [8]: > 0.1 mM and > 1.57 mM and 1.82 mM | TGI [9]: > 100 µM and 239 µM | TGI [10]: 415 µM | TGI [11]: > 100 µM and 1650 µM and > 2500 µM | TGI [12]: 179 µM | TGI [13]: > 0.1 mM and 2.4 mM and > 2.5 mM | TGI [14]: > 100 µM and 1100 µM and > 2500 µM | TGI [15]: 808 µM | TGI [16]: > 100 µM and 130 µM | TGI [17]: > 100 µM and 1750 µM and > 2500 µM | TGI [18]: > 0.1 mM and 1.94 mM and > 2.5 mM | TGI [19]: > 0.1 mM and 2.33 mM and > 2.5 mM | GI50 [20]: > 79.3 µM | GI50 [21]: > 92.6 µM | TGI [21]: > 100 µM and 1670 µM | TGI [22]: > 0.1 mM and 2.32 mM and > 2.5 mM | TGI [23]: > 100 µM and 1030 µM and > 869 µM | GI50 [24]: 33.6 µM | TGI [25]: > 0.1 mM and 1.91 mM and > 2.5 mM | TGI [26]: > 100 µM and 84.7 µM | TGI [27]: > 100 µM and 1080 µM

COc1ccccc1NC(=O)C1=C(C)NC(C)=C(C(=O)Nc2ccccc2OC)C1c1ccc(C2C(C(=O)Nc3ccccc3OC)=C(C)NC(C)=C2C(=O)Nc2ccccc2OC)cc1
TGI [28]: 3.52 µM | TGI [29]: 8.14 µM | TGI [1]: 4.22 µM | TGI [30]: 2700 nM | TGI [31]: 23.3 µM | TGI [32]: 25 µM | TGI [2]: 12.6 µM | TGI [33]: 6.91 µM | TGI [34]: 14 µM | TGI [3]: 0.0178 mM | TGI [35]: 15.6 µM | TGI [36]: 12.1 µM | TGI [37]: 11.6 µM | TGI [6]: 6.45 µM | TGI [7]: 9.93 µM | TGI [38]: 8 µM | TGI [39]: 9.45 µM | TGI [40]: 3.26 µM | TGI [41]: 5.06 µM | TGI [42]: 2670 nM | TGI [9]: 7.52 µM | TGI [43]: 31.9 µM | TGI [44]: 7.01 µM | TGI [10]: 8.67 µM | TGI [45]: 5.96 µM | TGI [11]: 16.2 µM | TGI [46]: 3.69 µM | TGI [47]: 5.77 µM | TGI [13]: 0.00456 mM | TGI [48]: 7.49 µM | TGI [49]: 6.08 µM | TGI [50]: 2660 nM | TGI [51]: 13.7 µM | TGI [52]: 6.28 µM | TGI [53]: 26 µM | TGI [54]: 6.17 µM | TGI [14]: 11.3 µM | TGI [15]: 21.6 µM | TGI [16]: 14.9 µM | TGI [55]: 3.89 µM | TGI [56]: 5.71 µM | TGI [17]: 12.5 µM | TGI [57]: 5.09 µM | TGI [58]: 3.39 µM | TGI [19]: 0.0107 mM | TGI [20]: 3.24 µM | TGI [59]: 10.2 µM | TGI [60]: 7.94 µM | TGI [61]: 11.5 µM | TGI [21]: 10 µM | TGI [22]: 0.00752 mM | TGI [62]: 3.38 µM | TGI [24]: 3.56 µM | TGI [63]: 3.34 µM | TGI [25]: > 0.0604 mM | TGI [64]: 4.06 µM | TGI [65]: 5.64 µM | TGI [26]: 15.5 µM | TGI [27]: 13.2 µM
